This is an account of results in patent publication US20260042745A1, “PYRROLIDINE-2-CARBOXAMIDE DERIVATIVES AS PROSTAGLANDIN E2 RECEPTOR 4 (EP4) AGONISTS FOR THE TREATMENT OF GASTROINTESTINAL AND PULMONARY DISEASES” (NXERA PHARMA UK LIMITED, priority 2022, published 2026).

Data set [1] is described as follows: Unidirectional Caco-2 cell permeability assay. Format: in vitro ADME. The note with it: human, apical pH 6.5, basolateral pH 7.4, 1 hour, 37° C., n=2. As for the experimental part: Caco-2 cells (ECACC) were seeded onto 24-well Transwell plates at 2×10^5 cells per well and used in confluent monolayers after a 21 day culture at 37° C. under 500 CO2. Test compounds were incubated at 10 μM, 0.2% DMSO final, n=2 in assay buffer (Hanks balanced salt solution supplemented with 25 mM HEPES, adjusted to pH 6.5). Hanks balanced salt solution supplemented with 25 mM HEPES, adjusted to pH 7.4 (0.2% DMSO final) was used for the basolateral chamber (as receiver).
Incubations were performed at 37° C., with samples removed from both donor and acceptor chambers at T=0 and 1 hour and compound analysed by mass spectrometry (LC-MS/MS) including an analytical internal standard ([…] carbamazepine).
Apparent permeability (Papp) values are shown in Table 3 and were determined from the relationship:
Where V is the volume of each Transwell compartment (apical 125 μL, basolateral 600 μL), and concentrations are the relative MS responses for compound (normalized to internal standard) in the donor chamber before incubation and acceptor chamber at the end of the incubation Area=area of cells exposed for drug transfer (0.33 cm^2).
Lucifer Yellow (LY) was added to the apical buffer in all wells to assess viability of the cell layer. As LY cannot freely permeate lipophilic barriers, a high degree of LY transport indicates poor integrity of the cell layer and wells with a LY Papp>10×10^−6 cm/s were rejected.
Compound recovery from the wells was determined from MS responses (normalized to internal standard) in donor and acceptor chambers at the end of incubation compared to response in the donor chamber pre-incubation.
For orientation: Caco-2 monolayers are a common model of the intestinal barrier.

Another data set deals with T1, human EP4 (Homo sapiens, UniProt P35408).
T1 construct: expressed in transfected cells; host or cells: HEK293 cells transduced with EP4 BacMam baculovirus
The data set is described as follows: cAMP Gs functional assay (HTRF cAMP dynamic-2) in EP4-transfected HEK293 cells. Type of data set: cell-based. The note with it: HEK293 cells transfected with EP4 BacMam virus; for EC50: 30 min at 37° C., HTRF cAMP, read-out: cAMP human EP4 pEC50 (converted); for cAMP human EP4 Emax: positive control PGE2. On the procedure:
Cloning, Baculovirus generation, large scale infection of HEK293 cells and membrane preparation: Human prostaglandin E2 receptor 4 (EP4) was cloned into pBacMam expression vector (GeneScript, UK). Transposition of EP4 DNA was performed using Invitrogen's Bac-to-Bac Baculovirus Expression Systems. P0 baculovirus was generated by transfecting SF9 Cells with bacmid DNA using Cellfectin II transfection reagent (ThermoFisher Scientific, UK). Following P0 generation P1 virus was then generated ready for large scale infection and membrane preparation. HEK293 cells were grown in DMEM (ThermoFisher Scientific, UK), supplemented with 10% heat inactivated fetal bovine serum (FBS). Cells were infected at a seeding density of 3.5 million cells/mL in 500 cm^3 flasks at 5% v/v EP4 Bacman. Expression was carried out over a 36 hour period at 37° C. with 5% CO2. The cells were removed using PBS and a cell scrapper. The cell culture was centrifuged at 2500 RPM for 10 mins at 4° C. The supernatant was then poured off and the pellet stored at −80° C. The pellet was defrosted and re-suspended in 15 mL of homogenising buffer (20 mM HEPES, 10 mM EDTA, pH 7.4). Then homogenised in mechanical homogeniser (VMR) for 10 seconds. The membrane was centrifuged in centrifuge tubes at 40,000 g for 15 mins at 4° C. The supernatant was poured away and re-suspended in 15 mL of homogenising buffer and homogenised for 20 seconds. The membrane was then centrifuged at 40,000 g for 45 mins at 4° C. The membrane was then re-suspended in 3 mL of storage buffer (20 mM HEPES, 0.1 mM EDTA, pH 7.4) mixing well. The resulting membranes were then stored at −80° C.
cAMP Gs Functional Assay: cAMP production following EP4 receptor activation was determined using the Homogeneous Time-Resolved Fluorescence (HTRF) cAMP dynamic-2 assay (Cisbio, France). HEK293 cells were transfected using a 0.5% EP4 Bacman virus for 36 hours, before dissociating the cells, and freezing at −150° C.
On the day of testing, increasing concentration of test compounds, alongside positive controls ([…] PGE2 (Tocris, Abingdon, UK)) and negative control (DMSO (Sigma-Aldrich, UK) were added to a ProxiPlate-384 Plus, White 384-shallow well Mircoplate, (PerkinElmer, USA) using the ECHO dispense.
Cells were defrosted in a water bath and resuspended in DMEM supplemented with 10% FBS before centrifuging at 1200 RPM for 5 mins to form a pellet. The pellet was resuspended in assay buffer (DMEM+0.5 mM IBMX (Tocris, Abingdon, UK)) to 0.5×10^6 cells/mL. Cell suspension, for a final assay concentration of 5000 cell/well was added using the multidrop to the pre-dispensed assay plate. The plate was then incubated at 37° C. for 30 mins, with 5% CO2. The cAMP production was determined as manufacturer's instructions, before plates were read on a PheraStar fluorescence plate reader (BMG LabTech, Germany).
In general terms: In TR-FRET formats the signal depends on donor and acceptor labels being close together.

Each structure is given as a SMILES string.

T1 sequence (P35408 whole entry): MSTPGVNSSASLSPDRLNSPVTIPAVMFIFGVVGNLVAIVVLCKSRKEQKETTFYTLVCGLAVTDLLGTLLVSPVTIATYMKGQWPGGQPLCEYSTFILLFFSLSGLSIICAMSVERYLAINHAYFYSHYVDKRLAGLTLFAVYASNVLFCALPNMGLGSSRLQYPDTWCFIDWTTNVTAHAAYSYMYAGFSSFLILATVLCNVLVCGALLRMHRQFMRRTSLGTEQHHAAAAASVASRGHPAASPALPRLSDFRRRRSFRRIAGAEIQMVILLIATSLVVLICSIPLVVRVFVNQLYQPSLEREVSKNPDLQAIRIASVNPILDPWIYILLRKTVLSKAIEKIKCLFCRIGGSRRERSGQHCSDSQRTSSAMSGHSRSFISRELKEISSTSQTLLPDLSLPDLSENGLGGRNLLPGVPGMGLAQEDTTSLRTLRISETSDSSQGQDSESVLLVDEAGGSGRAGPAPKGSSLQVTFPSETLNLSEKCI

Usually Papp A→B stands for the apparent permeability from the apical to the basolateral side of a cell layer. A higher Papp A→B goes with ready permeation. For the compound `Cc1cc(C(N)=O)ccc1-c1cccc(CN2CCC[C@@H]2C(=O)NCc2ccc(C(=O)O)c(O)c2)c1` [Example 15, (R)-4-((1-((4′-carbamoyl-2′-methyl-[1,1′-biphenyl]-3-yl)methyl)pyrrolidine-2-carboxamido)methyl)-2-hydroxybenzoic acid], the Papp A→B at 1 h, 10 μM in data set [1] is below 0.1 ×10⁻⁶ cm/s. Moreover, at human EP4, the EC50 was 31.6 nM and the cAMP human EP4 Emax worked out at 96%.
Take `Cc1cc(S(N)(=O)=O)ccc1-c1cccc(CN2CCC[C@@H]2C(=O)NCc2ccc(C(=O)O)c(O)c2)c1` [Example 16, (R)-2-hydroxy-4-((1-((2′-methyl-4′-sulfamoyl-[1,1′-biphenyl]-3-yl)methyl)pyrrolidine-2-carboxamido)methyl)benzoic acid]: in data set [1], the Papp A→B at 1 h, 10 μM was 0.17 ×10⁻⁶ cm/s. Besides, at human EP4, the EC50 was 20 nM and the cAMP human EP4 Emax was found to be 98%.
For `Cc1cc(S(N)(=O)=O)ccc1-c1cccc(CN2CCC[C@@H]2C(=O)N[C@@H](C)c2ccc(C(=O)O)c(O)c2)c1` [Example 18, 2-hydroxy-4-((S)-1-((R)-1-((2′-methyl-4′-sulfamoyl-[1,1′-biphenyl]-3-yl)methyl)pyrrolidine-2-carboxamido)ethyl)benzoic acid] the same measures were 0.11 ×10⁻⁶ cm/s, 3.16 nM and 95%.
For `C[C@H](NC(=O)[C@H]1CCCN1Cc1ccc(O)c(-c2ccc(S(N)(=O)=O)cc2)c1)c1ccc(C(=O)O)cc1` [Example 19] the same measures were below 0.12 ×10⁻⁶ cm/s, 100 nM and 90%.
With `Cc1cc(S(N)(=O)=O)ccc1-c1cc(O)cc(CN2CCC[C@@H]2C(=O)N[C@@H](C)c2ccc(C(=O)O)cc2)c1` [Example 20, 4-((S)-1-((R)-1-((5-hydroxy-2′-methyl-4′-sulfamoyl-[1,1′-biphenyl]-3-yl)methyl)pyrrolidine-2-carboxamido)ethyl)benzoic acid], the apparent permeability from apical to basolateral (Papp A→B) at 1 h, 10 μM in data set [1] was below 0.1 ×10⁻⁶ cm/s. At human EP4, the EC50 is 0.631 nM and the cAMP human EP4 Emax is 98%.
For `Cc1cc(C(N)=O)ccc1-c1cc(O)cc(CN2C[C@H](O)C[C@@H]2C(=O)N[C@@H](C)c2ccc(C(=O)O)cc2)c1` [Example 21, 4-((S)-1-((2R,4R)-1-((4′-carbamoyl-5-hydroxy-2′-methyl-[1,1′-biphenyl]-3-yl)methyl)-4-hydroxypyrrolidine-2-carboxamido)ethyl)benzoic acid], the Papp A→B at 1 h, 10 μM in data set [1] was below 0.11 ×10⁻⁶ cm/s. At human EP4, the EC50 was 7.94 nM and the cAMP human EP4 Emax amounted to 96%.
For `C[C@H](NC(=O)[C@H]1CCCN1Cc1cccc(-c2ccc(S(N)(=O)=O)cc2O)c1)c1ccc(C(=O)O)cc1` [Example 22] the same measures were below 0.1 ×10⁻⁶ cm/s, 126 nM and 85%.
For `Cc1cc(C(N)=O)ccc1-c1cc(O)cc(CN2CC3CC2(C(=O)N[C@@H](C)c2ccc(C(=O)O)cc2)C3)c1` [Example 23, (S)-4-(1-(2-((4′-carbamoyl-5-hydroxy-2′-methyl-[1,1′-biphenyl]-3-yl)methyl)-2-azabicyclo[2.1.1]hexane-1-carboxamido)ethyl)benzoic acid], the Papp A→B at 1 h, 10 μM in data set [1] turned out to be 0.245 ×10⁻⁶ cm/s. Also, at human EP4, the EC50 was 0.158 nM and the cAMP human EP4 Emax is 91%.
In the case of `Cc1cc(S(N)(=O)=O)ccc1-c1cncc(CN2CCC[C@@H]2C(=O)N[C@@H](C)c2ccc(C(=O)O)cc2)c1` [Example 24, 4-((S)-1-((R)-1-((5-(2-methyl-4-sulfamoylphenyl)pyridin-3-yl)methyl)pyrrolidine-2-carboxamido)ethyl)benzoic acid], the Papp A→B at 1 h, 10 μM in data set [1] was found to be 0.16 ×10⁻⁶ cm/s. On human EP4, the EC50 is 25.1 nM and the cAMP human EP4 Emax is 99%.
As for `Cc1cc(S(N)(=O)=O)ccc1-c1cccc(CN2CC3CC2(C(=O)NC2(c4ccc(C(=O)O)cc4)CC2)C3)c1` [Example 27, 4-(1-(2-((2′-methyl-4′-sulfamoyl-[1,1′-biphenyl]-3-yl)methyl)-2-azabicyclo[2.1.1]hexane-1-carboxamido)cyclopropyl)benzoic acid], in data set [1], the Papp A→B at 1 h, 10 μM was below 0.28 ×10⁻⁶ cm/s. In addition, at human EP4, the EC50 was 6.31 nM and the cAMP human EP4 Emax was 85%.
For `Cc1cc(C(N)=O)ccc1-c1cccc(CN2CC3CC2(C(=O)N[C@@H](C)c2ccc(C(=O)O)cc2)C3)c1` [Example 28, (S)-4-(1-(2-((4′-carbamoyl-2′-methyl-[1,1′-biphenyl]-3-yl)methyl)-2-azabicyclo[2.1.1]hexane-1-carboxamido)ethyl)benzoic acid] the same measures were below 0.12 ×10⁻⁶ cm/s, 25.1 nM and 76%.
Regarding `Cc1cc(C(N)=O)ccc1-c1cccc(CN2CC3CC2(C(=O)NC2(c4ccc(C(=O)O)cc4)CC2)C3)c1` [Example 29, 4-(1-(2-((4′-carbamoyl-2′-methyl-[1,1′-biphenyl]-3-yl)methyl)-2-azabicyclo[2.1.1]hexane-1-carboxamido)cyclopropyl)benzoic acid], the Papp A→B at 1 h, 10 μM in data set [1] was below 0.11 ×10⁻⁶ cm/s. For the same compound, on human EP4, the EC50 was 6.31 nM and the cAMP human EP4 Emax is 91%.
`Cc1cc(S(N)(=O)=O)ccc1-c1cccc(CN2CCC[C@@H]2C(=O)NC2(c3ccc(C(=O)O)cc3)CC2)c1` [Example 30, (R)-4-(1-(1-((2′-methyl-4′-sulfamoyl-[1,1′-biphenyl]-3-yl)methyl)pyrrolidine-2-carboxamido)cyclopropyl)benzoic acid]: the Papp A→B at 1 h, 10 μM in data set [1] worked out at 0.29 ×10⁻⁶ cm/s. On human EP4, the EC50 was 0.501 nM and the cAMP human EP4 Emax stood at 99%.
For `Cc1cc(C(N)=O)ccc1-c1cccc(CN2CCC[C@@H]2C(=O)NC2(c3ccc(C(=O)O)cc3)CC2)c1` [Example 31, (R)-4-(1-(1-((4′-carbamoyl-2′-methyl-[1,1′-biphenyl]-3-yl)methyl)pyrrolidine-2-carboxamido)cyclopropyl)benzoic acid] the same measures were 0.45 ×10⁻⁶ cm/s, 0.02 nM and 98%.
With `Cc1cc(O)ccc1-c1cc(O)cc(CN2CCC[C@@H]2C(=O)N[C@@H](C)c2ccc(C(=O)O)cc2)c1` [Example 33, 4-((S)-1-((R)-1-((4′,5-dihydroxy-2′-methyl-[1,1′-biphenyl]-3-yl)methyl)pyrrolidine-2-carboxamido)ethyl)benzoic acid], the Papp A→B at 1 h, 10 μM in data set [1] turned out to be 0.32 ×10⁻⁶ cm/s. Besides, at human EP4, the EC50 was 0.0316 nM and the cAMP human EP4 Emax amounted to 97%.
`Cc1cc(C(N)=O)ccc1-c1cc(O)cc(CN2CCC[C@@H]2C(=O)N[C@@H](C)c2ccc(C(=O)O)c(O)c2)c1` [Example 34, 4-((S)-1-((R)-1-((4′-carbamoyl-5-hydroxy-2′-methyl-[1,1′-biphenyl]-3-yl)methyl)pyrrolidine-2-carboxamido)ethyl)-2-hydroxybenzoic acid] came in with a Papp A→B at 1 h, 10 μM in data set [1] of 0.24 ×10⁻⁶ cm/s. On human EP4, the EC50 was 0.2 nM and the cAMP human EP4 Emax came to 100%.
